# Columns and labels:
# [1] = target: T1, human MAO-B (Homo sapiens, UniProt P27338); experiment: Amplex Red monoamine oxidase assay, MAO-B; type: biochemical; settings: human recombinant MAO-B; read-out: MAO-B IC50 ± SEM
# T1 construct: purchased Sigma Aldrich M7441
# T1 sequence (P27338 1-520): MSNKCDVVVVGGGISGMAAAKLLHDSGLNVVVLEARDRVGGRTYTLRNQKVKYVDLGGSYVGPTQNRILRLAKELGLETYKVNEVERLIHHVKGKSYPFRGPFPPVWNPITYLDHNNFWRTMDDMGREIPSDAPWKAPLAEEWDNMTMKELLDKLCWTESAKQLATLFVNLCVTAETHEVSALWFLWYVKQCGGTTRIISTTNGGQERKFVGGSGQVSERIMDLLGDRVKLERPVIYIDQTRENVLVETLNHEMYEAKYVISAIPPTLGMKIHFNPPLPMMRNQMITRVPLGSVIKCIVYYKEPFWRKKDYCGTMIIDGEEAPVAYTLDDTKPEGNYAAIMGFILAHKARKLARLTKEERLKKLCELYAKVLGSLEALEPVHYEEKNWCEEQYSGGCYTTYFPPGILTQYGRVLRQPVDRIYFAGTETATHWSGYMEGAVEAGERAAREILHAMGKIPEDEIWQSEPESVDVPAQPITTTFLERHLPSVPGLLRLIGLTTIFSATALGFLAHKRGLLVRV
# [2] = target: T2, human MAO-A (Homo sapiens, UniProt P21397); experiment: Amplex Red monoamine oxidase assay, MAO-A; type: biochemical; settings: for IC50: human recombinant MAO-A, read-out: MAO-A IC50 ± SEM; for inhibition at 1 µM: read-out: MAO-A % Inhibition ± SEM at 1 µM
# T2 construct: purchased Sigma Aldrich M7316
# T2 sequence (P21397 1-527): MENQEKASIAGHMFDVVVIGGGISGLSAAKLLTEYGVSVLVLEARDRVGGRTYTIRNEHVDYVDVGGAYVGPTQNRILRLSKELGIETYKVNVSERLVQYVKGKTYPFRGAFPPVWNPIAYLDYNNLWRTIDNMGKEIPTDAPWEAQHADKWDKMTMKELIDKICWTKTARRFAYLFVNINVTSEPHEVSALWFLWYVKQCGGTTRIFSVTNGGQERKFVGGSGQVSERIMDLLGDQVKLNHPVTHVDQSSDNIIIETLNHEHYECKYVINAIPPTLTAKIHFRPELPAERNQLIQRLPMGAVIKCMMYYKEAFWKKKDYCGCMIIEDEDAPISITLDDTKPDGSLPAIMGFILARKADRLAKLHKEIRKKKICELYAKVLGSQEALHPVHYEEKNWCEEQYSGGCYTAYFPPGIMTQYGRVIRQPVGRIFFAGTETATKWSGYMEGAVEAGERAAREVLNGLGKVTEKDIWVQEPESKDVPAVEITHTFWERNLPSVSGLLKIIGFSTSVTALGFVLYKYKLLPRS
# Method: The final compounds were evaluated in vitro for their human MAO-B (hMAO-B) inhibitory potencies, and selected structures were also investigated for human MAO-A (hMAO-A) inhibition.
# Inhibition activity of compounds at MAO enzyme isoforms was measured via a fluorometric method using the Amplex Red Monoamine Oxidase Assay (ThermoFisher Scientific, Waltham, MA, USA #A12214) in a 96-well plates. Human recombinant MAO-B and MAO-A enzymes (Sigma Aldrich, St. Louis, MO, USA #M7441 and #M7316) were used. The assays were conducted as previously described.
# [3] = target: T3, rat A2A (rA2A) ARs (Rattus norvegicus, UniProt P30543); experiment: Radioligand binding [3H]MSX-2, rat brain striatal membranes; settings: read-out: rA2A [3H]MSX-2 Ki ± SEM
# T3 construct: rat brain striatal membrane preparations for A2A AR assays; tissue Pel Freez; host or cells: rat brain striatum membranes
# Method: (§1) The final compounds were tested in radioligand binding assays to evaluate their affinity for all four ARs subtypes (see Table 2). Rat brain cortical membrane preparations were used as a source of rat A1 (rA1) ARs, and rat brain striatal membrane preparations served as a source of rat A2A (rA2A) ARs. For A2B- and A3AR assays, membrane preparations of Chinese hamster ovary (CHO) cells recombinantly expressing either human A2B (hA2B) or human A3 (hA3) ARs were employed.
# (§2) Adenosine receptor radioligand binding assays were performed as previously described using rat brain cortical membrane preparations for A1 and rat brain striatal membrane preparations for A2A AR assays. Frozen rat brains (unstripped) were obtained from Pel Freez, Rogers, AR, USA. For assays at human AR subtypes, cell membranes of CHO cells recombinantly expressing the respective receptor were used. The following compounds were employed as radioligands: A1: [^3H]2-chloro-N^6-cyclopentyladenosine ([^3H]CCPA); A2A: [^3H]3-(3-hydroxypropyl)-7-methyl-8-(m-methoxystyryl)-1-propargylxanthine ([^3H]MSX-2); A2B: [^3H]8-(4-(4-(4-chlorophenyl)piperazine-1-sulfonyl)phenyl)-1-propylxanthine ([^3H]PSB-603); A3: [^3H]phenyl-8-ethyl-4-methyl-(8R)-4,5,7,8-tetrahydro-1H-imidazo[2,1-i]purine-5-one ([^3H]PSB-11). Initially, a single high concentration of compound was tested (1 µM). For potent compounds, full concentration–inhibition curves were determined using six to ten different concentrations of test compound spanning three orders of magnitude. At least three independent experiments were performed. Data were analyzed using GraphPad PRISM program version 4.0 or higher (Graph Pad, San Diego, CA, USA).
# [4] = target: T4, human A2B (hA2B) ARs (Homo sapiens, UniProt P29275); experiment: Radioligand binding [3H]PSB-603, CHO cell membranes; settings: for Ki: CHO cell membranes, read-out: hA2B [3H]PSB-603 Ki ± SEM; for inhibition at 1 µM: read-out: hA2B [3H]PSB-603 % inhibition ± SEM at 1 µM
# T4 construct: expressed in transfected cells; host or cells: CHO cells (membranes)
# T4 sequence (P29275 1-332): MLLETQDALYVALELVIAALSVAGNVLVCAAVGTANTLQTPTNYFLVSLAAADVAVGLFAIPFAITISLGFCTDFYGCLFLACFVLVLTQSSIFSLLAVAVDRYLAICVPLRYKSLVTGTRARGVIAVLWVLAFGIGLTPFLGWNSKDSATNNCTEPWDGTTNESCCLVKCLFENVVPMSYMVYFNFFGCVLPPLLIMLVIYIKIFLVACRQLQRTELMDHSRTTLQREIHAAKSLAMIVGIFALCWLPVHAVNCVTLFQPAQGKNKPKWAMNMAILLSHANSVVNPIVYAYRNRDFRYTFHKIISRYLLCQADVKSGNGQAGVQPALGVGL
# Method: as §1, §2
# T3 sequence (P30543 whole entry): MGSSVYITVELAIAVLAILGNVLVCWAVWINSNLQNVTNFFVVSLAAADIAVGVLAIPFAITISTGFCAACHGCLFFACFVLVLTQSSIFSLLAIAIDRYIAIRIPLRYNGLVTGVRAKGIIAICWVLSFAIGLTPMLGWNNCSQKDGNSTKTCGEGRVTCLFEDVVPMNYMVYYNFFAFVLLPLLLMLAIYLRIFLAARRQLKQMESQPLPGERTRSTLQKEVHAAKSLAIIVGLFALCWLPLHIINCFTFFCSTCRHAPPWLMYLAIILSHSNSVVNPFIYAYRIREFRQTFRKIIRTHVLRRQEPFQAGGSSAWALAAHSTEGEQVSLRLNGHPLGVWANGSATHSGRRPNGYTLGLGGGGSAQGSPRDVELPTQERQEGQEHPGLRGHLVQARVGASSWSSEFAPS
SMILES,IC50 [1] [nM],IC50 [2] [nM],inhibition at 1 µM [2] [%],Ki [3] [nM],Ki [4] [nM],inhibition at 1 µM [4] [%]
"Cn1c(=O)c2c(nc(NCCc3ccc(O)c(O)c3)n2C)n(C)c1=O [Compound 11a, 8-((3,4-Dihydroxyphenethyl)amino)-1,3,7-trimethyl-3,7-dihydro-1H-purine-2,6-dione]",50.7 ± 10,> 1000,44,370 ± 63,> 1000,20
"CCCCCn1c(NCCc2ccc(O)c(O)c2)nc2c1c(=O)n(C)c(=O)n2C [Compound 11h, 8-((3,4-Dihydroxyphenethyl)amino)-1,3-dimethyl-7-pentyl-3,7-dihydro-1H-purine-2,6-dione]",58.3 ± 6.2,692 ± 7,,2220 ± 260,> 1000,12
"CCCn1c(=O)c2c(nc(NCCc3ccc(O)c(O)c3)n2CCC)n(CCC)c1=O [Compound 12, 8-((3,4-Dihydroxyphenethyl)amino)-1,3,7-tripropyl-3,7-dihydro-1H-purine-2,6-dione]",105 ± 23,~1000,57,833 ± 81,> 1000,34
"CCCn1c(=O)c2c(nc3n2CCCN3CCc2ccc(O)c(O)c2)n(CCC)c1=O [Compound 21, 9-(3,4-Dihydroxyphenethyl)-1,3-dipropyl-6,7,8,9-tetrahydropyrimido[2,1-f]purine-2,4(1H,3H)-dione]",157 ± 39,~1000,61,274 ± 81,371 ± 23,

# The remaining lines, values ahead:
IC50 [1] [nM],IC50 [2] [nM],inhibition at 1 µM [2] [%],Ki [3] [nM],Ki [4] [nM],inhibition at 1 µM [4] [%],SMILES
45.6 ± 12.9,576 ± 68,,3600 ± 290,> 1000,31,"Cn1c(=O)c2c(nc(NCCc3ccc(O)c(O)c3)n2Cc2ccccc2)n(C)c1=O [Compound 11j, 7-Benzyl-8-((3,4-dihydroxyphenethyl)amino)-1,3-dimethyl-3,7-dihydro-1H-purine-2,6-dione]"
205 ± 23,> 1000,42,6860 ± 770,> 1000,1,"CC(C)Cn1c(NCCc2ccc(O)c(O)c2)nc2c1c(=O)n(C)c(=O)n2C [Compound 11f, 8-((3,4-Dihydroxyphenethyl)amino)-7-isobutyl-1,3-dimethyl-3,7-dihydro-1H-purine-2,6-dione]"
53.5 ± 18.2,> 1000,41,1380 ± 120,> 1000,22,"Cn1c(=O)c2c(nc(NCCc3ccc(O)c(O)c3)n2CCOc2ccccc2)n(C)c1=O [Compound 11l, 8-((3,4-Dihydroxyphenethyl)amino)-1,3-dimethyl-7-(2-phenoxyethyl)-3,7-dihydro-1H-purine-2,6-dione]"
165 ± 30,> 1000,33,4720 ± 930,> 1000,6,"CCCn1c(NCCc2ccc(O)c(O)c2)nc2c1c(=O)n(C)c(=O)n2C [Compound 11c, 8-((3,4-Dihydroxyphenethyl)amino)-1,3-dimethyl-7-propyl-3,7-dihydro-1H-purine-2,6-dione]"
